Measurements reported in patent publication US20230338362A1 (priority 2020, published 2023).
Like-named read-outs stand apart in the source and are kept apart here.

What was measured:
[1] = test system: VERO-E6 cells enriched for angiotensin converting enzyme 2 receptor (ACE-2); experiment: In vitro toxicity, cell viability assay in VERO-E6 cells in the absence of virus; settings: Table I, positive controls; absence of SARS-CoV-2 virus
[2] = test system: macrophages treated with SARS-CoV-2 Spike protein; format: cell-based, human; note: test concentration or dose not given here
[3] = test system: macrophages treated with SARS-CoV-2 Spike protein; format: cell-based, human; remark: listed apart in the source; note: test concentration or dose not given here
Influenza B = experiment: In vitro activity against Influenza B, methods analogous to Example 1; format: cell-based
SARS-CoV-2 = SARS-CoV-2 inhibition, cell viability assay (CellTiter-Glo) in VERO-E6 cells enriched for ACE-2; format: cell-based
common cold coronavirus = experiment: In vitro activity against common cold coronaviruses, methods analogous to Example 1; format: cell-based
SARS-CoV = format: cell-based
Influenza A = experiment: In vitro activity against Influenza A, methods analogous to Example 1; format: cell-based
MERS-CoV = format: cell-based
[4] = Severe acute respiratory syndrome coronavirus 2, Vero C1008; Table II, antiviral compounds; VERO-E6 cells enriched for ACE-2 plus SARS-CoV-2; read-out: IC50
[5] = Severe acute respiratory syndrome coronavirus 2, Vero C1008; read-out: IC50 in an in vitro inhibition assay against SARS-CoV-2

Structure (SMILES) | CC50 [1] | apoptosis by activation of caspase 3 [2] | apoptosis by caspase 3 activation [2] | anti-inflammatory cytokines [3] | expression of cytokine modulators / anti-inflammatory cytokines [3] | expression of pro-inflammatory cytokines [3] | pro-inflammatory cytokines [3] | activity against Influenza B (Influenza B) | IC50 (SARS-CoV-2; [4]) | IC50 (SARS-CoV-2; [5]) | activity against common cold coronavirus (common cold coronavirus) | activity against SARS-CoV (SARS-CoV) | activity against Influenza A (Influenza A) | activity against MERS-CoV (MERS-CoV) | expression of the anti-inflammatory cytokine IL-10 [3] | multiple pro-inflammatory cytokines [3] | IC50 (SARS-CoV-2; Severe acute respiratory syndrome coronavirus 2, Vero C1008, read-out: IC50 in an in vitro inhibition assay against SARS-CoV-2)
CCN(CC)CCCC(C)Nc1ccnc2cc(Cl)ccc12 (stereo not drawn) [Chloroquine, chloroquine, reference compound] | > 30 µM | – | – | – | – | – | – | – | – | – | – | – | – | – | – | – | –
O=c1cc(-c2ccccc2)oc2cc(O)c(O)c(O)c12 [baicalein, 5,6,7-trihydroxy-2-phenylchromen-4-one] | – | selectively induces apoptosis | induced apoptosis | inducing anti-inflammatory cytokines such as IL-10 | activated expression of cytokine modulators IL-10 and IFN-γ | inhibited expression of pro-inflammatory cytokines IL-1α, IL-8, GRO, MCP-1, MIP-1α, MIP-1β, MMP-9 and TNF-α | selectively inhibited pro-inflammatory cytokine, such as IL-1α, IL-8, GRO, MCP-1, MIP-1α, MIP-1β, MMP-9 and TNF-α | – | – | – | – | – | – | – | – | – | –
CN(C)CCCSc1ccccc1NC(=O)/C=C/c1ccccc1 [Cinanserin, cinanserin] | – | – | – | – | – | – | – | active | 13.7 µM | 13.7 µM | active | active | active | active | – | – | –
O=C(/C=C/c1ccccc1)Nc1ccccc1 [cinnamanilide, (E)-N,3-diphenylprop-2-enamide] | – | – | – | inducing anti-inflammatory cytokines such as IL-10 | activated expression of cytokine modulator IL-10 | inhibited expression of pro-inflammatory cytokines IL-1α, VEGF, IL-6, IL-8, IL-13, GM-CSF, MIP-1α, MIP-1β, MMP-9 and RANTES | selectively inhibited pro-inflammatory cytokine, such as IL-1α, VEGF, IL-6, IL-8, IL-13, GM-CSF, MIP-1α, MIP-1β, MMP-9 and RANTES | – | – | – | – | – | – | – | – | – | –
CCC(CC)COC(=O)[C@H](C)N[P@](=O)(OC[C@H]1O[C@@](C#N)(c2ccc3c(N)ncnn23)[C@H](O)[C@@H]1O)Oc1ccccc1 [Remdesivir, remdesivir, reference compound] | > 30 µM | – | – | – | – | – | – | – | – | – | – | – | – | – | – | – | –
CC(C)=CCc1cc([C@@H]2CCc3ccc(O)cc3O2)c(CC=C(C)C)c(O)c1O [kazinol A, 4-[(2S)-7-hydroxy-3,4-dihydro-2H-chromen-2-yl]-3,6-bis(3-methylbut-2-enyl)benzene-1,2-diol] | – | selectively induces apoptosis | induced apoptosis | inducing anti-inflammatory cytokines such as IL-10 | activated expression of cytokine modulator IL-10 | inhibited expression of pro-inflammatory cytokines IL-1α, IL-4, IL-8, MIP-1β and MMP-9 | selectively inhibited pro-inflammatory cytokine, such as IL-1α, IL-4, IL-8, MIP-1β and MMP-9 | – | – | – | – | – | – | – | – | – | –
COc1ccc2cc1Oc1ccc(cc1)C[C@H]1c3c(cc4c(c3Oc3cc5c(cc3OC)CCN(C)[C@@H]5C2)OCO4)CCN1C [Cepharanthine, (14S,27S)-22,33-dimethoxy-13,28-dimethyl-2,5,7,20-tetraoxa-13,28-diazaoctacyclo[25.6.2.2^16,19.1^3,10.1^21,25.0^4,8.0^31,35.0^14,39]nonatri-aconta-1(33),3(39),4(8),9,16(38),17,19(37),21,23,25(36),31,34-dodecaene] | – | selectively induces apoptosis | induced apoptosis | inducing anti-inflammatory cytokines such as IL-10 | activating expression of the anti-inflammatory cytokine IL-10 | inhibited expression of pro-inflammatory cytokines VEGF, IL-6, IL-8, GRO, MIP-1α, MIP-1β and MMP-9 | selectively inhibited pro-inflammatory cytokine, such as VEGF, IL-6, IL-8, GRO, MIP-1α, MIP-1β and MMP-9 | active | 0.51 µM | 0.51 µM | active | active | active | active | increasing expression of the anti-inflammatory cytokine IL-10 | suppressed multiple pro-inflammatory cytokines such as IL-1β, TNF-α, IL-6 IL-8, IL-12, MCP-1 and MIP-1α | –
COc1cc(O)cc(O)c1C(=O)/C=C/c1ccc(O)cc1 [Helichrysetin, (E)-1-(2,4-dihydroxy-6-methoxyphenyl)-3-(4-hydroxyphenyl)prop-2-en-1-one] | – | selectively induces apoptosis | not observed to induce apoptosis | inducing anti-inflammatory cytokines such as IL-10 | activated expression of cytokine modulator IL-10 | inhibited expression of pro-inflammatory cytokines IL-1α, VEGF, IL-1β, IL-4, IL-5, IL-6, IL-8, IL-12p70, IL-13, MCP-1, MIP-1α, MIP-1β, MMP-9 and TNF-α | selectively inhibited pro-inflammatory cytokine, such as IL-1α, VEGF, IL-1β, IL-4, IL-5, IL-6, IL-8, IL-12p70, IL-13, MCP-1, MIP-1α, MIP-1β, MMP-9 and TNF-α | active | 10.4 µM | 10.4 µM | active | active | active | active | – | – | –
O=C(/C=C/c1ccc(O)c(O)c1)O[C@H](Cc1ccc(O)c(O)c1)C(=O)O [Rosmarinic acid] | – | – | – | – | – | – | – | active | 0.89 µM | – | active | active | active | active | – | – | 0.89 µM
CC(C)=CCc1cc(C(=O)/C=C/c2ccc(O)cc2)c(O)cc1O [Bavachalcone B] | – | – | – | – | – | – | – | active | 1.43 µM | 1.43 µM | active | active | active | active | – | – | –
O=C(O)[C@H]1O[C@@H](Oc2cc3oc(-c4ccccc4)cc(=O)c3c(O)c2O)[C@H](O)[C@@H](O)[C@@H]1O [Baicalin, baicalin] | – | – | – | – | – | – | – | active | 5.96 µM | 5.96 µM | active | active | active | active | – | – | –
COc1ccc2cc1Oc1ccc(cc1)C[C@H]1c3cc(c(OC)cc3CCN1C)Oc1c(OC)c(OC)cc3c1[C@H](C2)N(C)CC3 [Tetrandrine, (1S,14S)-9,20,21,25-tetramethoxy-15,30-dimethyl-7,23-dioxa-15,30-diazaheptacyclo[22.6.2.2^3,6.1^8,12.1^14,18.0^27,31.0^22,33]hexatriaconta-3(36),4,6(35),8,10,12(34),18,20,22(33),24,26,31-dodecaene] | – | selectively induces apoptosis | induced apoptosis | inducing anti-inflammatory cytokines, such as IL-10 | activating expression of the anti-inflammatory cytokine IL-10 | inhibited expression of pro-inflammatory cytokines VEGF, IL-6, IL-8, MIP-1α and MIP-1β | selectively inhibited pro-inflammatory cytokine, such as VEGF, IL-6, IL-8, MIP-1α and MIP-1β | active | – | – | active | active | active | active | – | – | –
COc1ccc2cc1Oc1ccc(cc1)C[C@H]1c3cc(c(OC)cc3CCN1C)Oc1c(O)c(OC)cc3c1[C@H](C2)N(C)CC3 [Fangchinoline, (1S,14S)-9,20,25-trimethoxy-15,30-dimethyl-7,23-dioxa-15,30-diazaheptacyclo[22.6.2.2^3,6.1^8,12.1^14,18.0^27,31.0^22,33]hexatriaconta-3(36),4, 6(35),8,10,12(34),18,20,22(33),24,26,31-dodecaen-21-ol] | – | selectively induces apoptosis | induced apoptosis | – | – | inhibited expression of pro-inflammatory cytokines VEGF, IL-8, MIP-1β and MMP-9 | selectively inhibited pro-inflammatory cytokines, such as VEGF, IL-8, GRO, MIP-1β and MMP-9 | active | 2.05 µM | 2.05 µM | active | active | active | active | – | – | –
COc1ccc(-c2coc3cc(O)ccc3c2=O)cc1 [formononetin, 7-hydroxy-3-(4-methoxyphenyl)chromen-4-one] | – | selectively induces apoptosis | induced apoptosis | inducing anti-inflammatory cytokines, such as IL-10 and IFN-γ | activated expression of cytokine modulators IL-10 and IFN-γ | inhibited expression of pro-inflammatory cytokines VEGF, IL-6, IL-8, GRO, MCP-1, MIP-1α, MIP-1β, MMP-9 and RANTES | selectively inhibited pro-inflammatory cytokine, such as VEGF, IL-6, IL-8, GRO, MCP-1, MIP-1α, MIP-1β, MMP-9 and RANTES | – | – | – | – | – | – | – | – | – | –
